Laboratory results taken from patent US20060110456A1, “Method for biocidal and/or biostatic treatment and compositions therefor” (NATIONAL UNIVERSITY OF SINGAPORE, priority 2004, published 2006).
Values joined by “and” are separate entries in the source; they are usually repeats but may differ in a detail not shown here. Identical values can stand only once. “Also recorded” adds a separate entry of the source. Counter-ions that a name gives are not always drawn. Like-named read-outs stand apart in the source and are kept apart here.

How the values were obtained:
barnacle nauplii = experiment: Toxicity of drugs under different light conditions and over time (stability in seawater); assay type: in vivo, Balanus amphitrite; conditions: 25 ug ml^−1 seawater suspension; for Change in toxicity on ageing in seawater, 12L:12D condition: 12 h light and 12 h dark, after 4 weeks
Procedure: Preliminary experiments were carried out to examine the chemical stability of the drugs. 25 ug ml^−1 seawater suspensions of the drugs were prepared, in 3 replicates per condition, 3 replicate tubes containing 15 ml per test tube per prepared for each treatment type. The treatments consisted of: • i. Dark condition: tubes were wrapped in aluminium foil and kept in the dark at all times • ii. 12L:12D condition, where the tubes were subject incubated in a plant growth chamber with light regime of 12 hours light and 12 hours dark. • iii. UV treated tubes were subject to UV for half an hour. […] Sets (1) & (2) were tested at week 0, 1, 2 and after 4 weeks. “UV” set is only assayed after UV treatment. […] Effect of UV

[1] = system: biofilm bacteria (strains 4, 9, 14, 20, 27, 28); experiment: Effect of pharmaceuticals on adhesion of bacteria to plastic / biofilm formation on NTC and TC plates; assay type: cell-based, marine bacteria isolated from Singapore fouling communities; conditions: for Effect on formation of bacterial biofilms on NTC and TC plates: 25 ug ml−1, NTC = untreated polystyrene, TC = tissue-culture treated, strains 4, 9, 14, 20, 27, 28; for Prevention of formation of biofilm: crude rank, best (1) to worst (8)
Procedure: Commercial forms of pharmaceuticals were used as previously described. […] These samples were sonicated for at least 1 min and these fine suspensions were used as initial stock solutions.
For studies of bacterial adhesion, the pharmaceuticals were first sterilized by soaking in absolute alcohol (Merck) for half an hour. Ethanol was removed by air-drying with air passed through 0.25 μm pore size syringe filter (Sartorius, Germany). Stock solutions were concentrations of 100 μg ml−1 in SDI.
The effect of pharmaceuticals on bacterial adhesion was analyzed using a modified microplate method adapted from Shea and Williamson (1990). This method employs a combination of staining attached bacteria with crystal violet, releasing the stain with sodium desoxycholate, and measuring the resulting absorbance of the crystal violet.
Detailed results for six selected strains are presented here: strains 4, 9, 14, 20, 27, 28. The bacterial strains were grown in Marine Broth (Pronadisa, Spain) overnight, in the dark, at 28° C. on a rotary shaker (150 rpm) in 5 ml centrifuge tubes (Falcon). Cells were harvested by centrifugation (1500×g, 10 min) and resuspended in sterile seawater (SSW). SSW was prepared by filtering seawater through a 0.2 μm pore size filter (Sartorius) followed by autoclaving. The cells were centrifuged and resuspended once more in SSW. The concentration of resuspended cells was adjusted to A600=1.0 using a spectrophotometer (Beckman DU530, USA).
Flat bottom 96 well polystyrene (hydrophobic, Falcon 351172) (=NTC) and tissue-culture treated polystyrene (hydrophilic, Falcon 353072) (=TC) microplates were used in the analyses. Each test was performed in triplicate. Two sets of experiments were conducted. […] For the control and blank wells, 25 ul of SDI were added. For wells containing pharmaceuticals, 25 ul of the respective pharmaceutical at a concentration of 100 ug ml−1 were added. This was immediately followed by the addition of 75 ul of bacterial suspension. To blanks were added 75 ul of SSW.
The bacterial cells in suspension were allowed to attach for 2 h at 28° C. Unattached cells were removed by aspiration using a plate washer (Tecan, Austria) and wells were rinsed three times with 200 ul of SSW each time. The attached cells were stained with 200 ul of crystal violet solution (0.1% w/v in deionized water) in each well for 5 min. After removing the stain using the plate washer, the wells were rinsed twice with 300 ul of SDI each time. Sodium desoxycholate (200 ul) solution (2% w/v in deionized water) was added to each well to extract the crystal violet from the attached stained cells for 10 min. The absorbance of the crystal violet was read at 590 nm using a microplate reader (Sunrise, Tecan, Austria).
Results of the adhesion assay were obtained by the difference in absorbance readings between wells containing bacterial cells and the mean of absorbance of those containing the SSW only. The effect of the pharmaceuticals on bacterial adhesion was determined by the examining the differences in absorbance between the wells containing the pharmaceuticals+bacteria and the bacteria. The significance was compared using T-test.

[2] = system: marine bacteria (26 strains); experiment: Disk inhibition assay; assay type: cell-based, marine bacteria isolated from Singapore fouling communities
Procedure, shortened: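 Tablets or capsule powders suspended in sterile water at 2 mg ml^−1 and loaded onto disks; antibiotic discs (Amp, Ery, Str, Tet) served as comparison. Disks placed on swabbed lawns on Marine Agar, incubated overnight in the dark at 30° C. Zone of clearing diameter measured by calipers; three replicates on three occasions.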

SMILES | Change in toxicity on ageing in seawater, 12L:12D condition (barnacle nauplii) | Effect of UV on drug toxicity to barnacle nauplii (barnacle nauplii; UV for half an hour) | Effect on formation of bacterial biofilms on NTC and TC plates ([1]; hydrochloride) | Prevention of formation of biofilm [1] | Antibiotic activity against marine bacteria ([2]; 25 or 50 μg per disc, in words) | Antibiotic activity against marine bacteria ([2]; crude rank, best (1) to worst (8)) | Effect on formation of bacterial biofilms on NTC and TC plates [1] | Antibiotic activity against marine bacteria [2]
Cc1nccn1CC1CCc2c(c3ccccc3n2C)C1=O (stereo not shown) [ZFN, ondansetron hydrochloride] | increased in toxicity | reduction in toxicity under UV | reduced bacterial adhesion of the 6 strains to the NTC plates; also recorded: only slight activity (p<0.1) against strain 4 on the TC plates; also recorded: marked reduction of biofilm growth for most on NTC but not on TC | 2 | did not have any appreciable antibiotic activity against marine bacteria | 8 |  | 
Cc1cc2c(s1)Nc1ccccc1N=C2N1CCN(C)CC1 [ZPX, olanzapine] | marked decrease in toxicity |  |  | 1 |  |  | prevented biofilm formation for all 6 strains in the NTC plates, and slightly reduced the biofilm formation in strains 4 on the TC plates; also recorded: marked reduction of biofilm growth for all strains on NTC, but only a slight reduction for strain 4 on TC | did not have any appreciable antibiotic activity against marine bacteria and 8
